From patent US8110217B2, “Sphingomyelin liposomes for the treatment of hyperactive bladder disorders” (priority 2001, dated 2012)

Tested on: chemically induced bladder hyperactivity
Assay: Cystometrogram (CMG): liposomes of various lipids infused in the presence of KCl after protamine sulfate (Examples 1-4)
Type: in vivo, female Sprague-Dawley rats
Text: Bladder reflex activity in thirty-four (34) female Sprague-Dawley rats (200-250 g) was studied by cystometry performed under anesthesia with urethane (1.2 g/kg) administered by subcutaneous injection. Body temperature was maintained in the physiologic range using a heating lamp. A transurethral bladder catheter (PE-50) connected by a three-way stopcock to a pressure transducer and to a syringe pump was used to record intravesical pressure and to infuse solutions into the bladder. A control cystometrogram (CMG) was performed by slowly filling the bladder with saline at a rate of 0.04 ml/min to elicit repetitive voiding. The bladder contraction frequency of the reflex bladder contractions were recorded. After performing control CMGs with saline infusion for 3 hours, protamine sulfate (PS) (Sigma Chemical; 10 mg/ml) was infused at a rate of 0.04 ml/min for 1 hour to increase epithelial permeability followed by infusion of the irritant KCl (500 mM) for 1 hour. Subsequently, liposomes made from lipids of various compositions then were infused in the presence of a high concentration of KCl for 2 hours.
The effect of charge on the lipid headgroup in reducing bladder activity in three animal groups (n=5) was determined. Neutrally charged liposomes prepared with L-α-PC (a zwitterionic lipid egg PC) were compared against liposomes having either a positively or negatively charged polar headgroup, namely, 1,2-dioleoyl-3-trimethylammonium-propane (DOTAP) and 1-α-phosphatidylserine (POPS), respectively.
Liposomes were prepared as described by Kirby and Gregoriadis (Kirby, C. J. and Gregoriadia, G., “A simple procedure for preparing liposomes capable of high encapsulation efficiency under mild conditions,” Liposome Technology, G. Gregnoriadis, Ed., C.R.C. Press, Inc., Boca Raton, Fla., 1984, Vol. 1, p. 20, 1984). Briefly, liposomes were constructed as a 2:1 molar ratio of L-α-phosphatidylcholine and cholesterol (Sigma Chemical Co., St. Louis, Mo.) to a final lipid concentration of 1-2 mg/ml in saline. Lipids in chloroform were dried down together in the proper ratio under nitrogen. The residues were reconstituted as liposomes in saline or 500 mM KCl by intense sonication. This lipid composition produced liposomes with no net charge.
Statistical analyses were performed using Student's t test for paired or unpaired data, where applicable. A P-value less than 0.05 was considered significant. All data were expressed as means±S.E. (standard error).
Neutrally charged liposomes prepared with sphingomyelin were compared against liposomes prepared from dihydrosphingomyelin and two pure synthetic lipids: 1,2-distearoyl-sn-glycero-3-phosphocholine (DSPC) and 1,-oleoyl-2-stearoyl-sn-glycero-3-phosphocholine (OSPC).
The methodology of this investigation is the same as described above in Example 1 with the exception that the preparation of liposomes was modified from Example 1. Briefly, liposomes were constructed as a 2:1 molar ratio of sphingomyelin and cholesterol (Sigma Chemical Co., St. Louis, Mo.) to a final lipid concentration of 1-2 mg/ml in saline. Lipids in chloroform were dried down together in the proper ratio under nitrogen. The residues were reconstituted as liposomes in saline or 500 mM KCl by intense sonication. This lipid composition produced sphingomyelin liposomes with no net charge.
Sphingomyelin devoid of its phosphorylcholine head group generates the molecule ceramide, a well known lipid second messenger which mediates a wide range of cellular responses to external stimuli, and also is used for the biosynthesis of sphingomyelin and glycosphingolipids. Because ceramide cannot form stable liposomes by itself, its effect on bladder hyperactivity was tested by including it at 1 mol % in an inert lipid, namely, 1,2-distearoyl-sn-glycero-3-phosphocholine (DSPC).
The methodology of this investigation is the same as described above in Example 1 with the exception that the preparation of liposomes was modified from Example 1. […]

[1] = included at 1 mol % in DSPC liposomes

With `CCCCCCCCCCCCC/C=C/[C@@H](O)[C@@H](N)COP(=O)(O)O` [sphingosine 1-phosphate] the “effect on efficacy of DSPC liposomes in reducing bladder contraction frequency” value [1] was “did not show a similar beneficial effect” and the “effect on efficacy of DSPC liposomes in reducing bladder contraction frequency” value (included in DSPC at 1-5 mol % (data not shown)) was “equally effective as ceramide and sphingosine”.

`CCCCCCCCCCCCC/C=C/[C@@H](O)[C@@H](N)CO` [sphingosine] was tested, and the “effect on efficacy of DSPC liposomes in reducing bladder contraction frequency” value [1] was “had a similar effect”.
